Common to all, as to assay type: cell-based
Assay [1] relates to Wnt activity (Wnt-responsive human Sp5 promoter, TCF/LEF binding sites) in SW480 colon carcinoma cells. The assay is described as follows: Wnt activity screening assay: Sp5-Luc luciferase reporter gene in SW480 cells. The settings on record: 10-point dose-response from 10 μM, incubated overnight. An excerpt: The screening assay for Wnt activity is described as follows. Reporter cell lines can be generated by stably transducing cancer cell lines (e.g., colon cancer) or primary cells (e.g., IEC-6 intestinal cells) with a lentiviral construct that includes a Wnt-responsive promoter driving expression of the firefly luciferase gene.
SW480 colon carcinoma cells were transduced with a lentiviral vector expressing luciferase with a human Sp5 promoter consisting of a sequence of eight TCF/LEF binding sites. SW480 cells stably expressing the Sp5-Luc reporter gene and a hygromycin resistance gene were selected by treatment with 150 μg/mL of hygromycin for 7 days. These stably transduced SW480 cells were expanded in cell culture and used for all further screening activities. Each compound was dissolved in DMSO as a 10 mM stock and used to prepare compound source plates. Serial dilution (1:3, 10-point dose-response curves starting from 10 μM) and compound transfer was performed using the ECHO 550 (Labcyte, Sunnyvale, Calif.) into 384-well white solid bottom assay plates (Greiner Bio-One) with appropriate DMSO backfill for a final DMSO concentration of 0.1%. For Sp5-Luc reporter gene assays, the cells were plated at 4,000 cells/well in 384-well plates with medium containing 1% fetal bovine serum and incubated overnight at 37° C. and 5% CO2. Following incubation, 20 μl of BrightGlo luminescence reagent (Promega) was added to each well of the 384-well assay plates. The plates were placed on an orbital shaker for 2 min and then luminescence was quantified using the Envision (Perkin Elmer) plate reader. Readings were normalized to DMSO only treated cells, and normalized activities were utilized for EC50 calculations using the dose-response log (inhibitor) vs. response-variable slope (four parameters) nonlinear regression feature available in GraphPad Prism 5.0 (or Dotmatics). For EC50 of >10 μM, the percent inhibition at 10 μM is provided.

For another assay, the system named is SW480 colon cancer cells. The assay is described as follows: Cell viability assay (CellTiter-Blue), four days. The settings on record: Homo sapiens, 96 h, CellTiter-Blue cell viability. The method, then:
Representative compounds were screened using the following assay procedure to assess the effect on cell viability as described below.
Each compound was dissolved in DMSO as a 10 mM stock and used to prepare compound source plates. Serial dilution (1:3, 8-point dose-response curves from 10 μM to 0.0045 μM) and compound transfer was performed using the ECHO 550 (Labcyte, Sunnyvale, Calif.) into 96-well clear bottom, black-walled plates (Corning-Costar).
Approximately 2×10^3 SW480 colon cancer cells were seeded into each well and allowed to incubate in the presence or absence of compound for four days at 37° C./5% CO2. Eight replicates of DMSO-treated cells served as controls and cells treated with compound were performed in duplicate.
After incubation, 20 μL of CellTiter-Blue (Promega) was added to each well allowed to incubate for approximately 3 hours. This reagent was a buffered solution which contains resazurin, metabolically active cells were able to reduce rezarurin (blue) into resorufin (pink) which was highly fluorescent. This measured fluorescence was used as a readout for cell viability.
After incubation, the plates were read at Ex 560 nm Em 590 nm (Cytation 3, BioTek). Dose-response curves were generated and EC50 concentration values were calculated using non-linear regression curve fit in the GraphPad Prism (San Diego, Calif.) or Dotmatics' Studies Software (Bishops Stortford, UK). For EC50 of >10 μM, the percent inhibition at 10 μM is provided.

Assay [2] deals with Primary human fibroblasts derived from IPF patients (LL29 cells) treated with TGF-β1. The assay is described as follows: Inhibition of the fibrotic process: αSMA staining in TGF-β1 treated fibroblasts. The settings on record: Fibroblast, 96 h, LL29 fibroblasts treated with TGF-β1, 4 days. An excerpt: Representative compounds were screened using primary human fibroblasts (derived from IPF patients) treated with TGF-β1 to determine their ability to inhibit the fibrotic process.
Primary human fibroblasts derived from IPF patients (LL29 cells) [^1Xiaoqiu Liu, et. al., “Fibrotic Lung Fibroblasts Show Blunted Inhibition by cAMP Due to Deficient cAMP Response Element-Binding Protein Phosphorylation”, Journal of Pharmacology and Experimental Therapeutics (2005), 315(2), 678-687; ^2Watts, K. L., et. al., “RhoA signaling modulates cyclin D1 expression in human lung fibroblasts; implications for idiopathic pulmonary fibrosis”, Respiratory Research (2006), 7(1), 88] were obtained from American Type Culture Collection (ATCC) and expanded in F12 medium supplemented with 15% Fetal Bovine Serum and Penicillin/Streptomycin.
Each compound was dissolved in DMSO as a 10 mM stock and used to prepare compound source plates. Serial dilution (1:2, 11-point dose-response curves from 10 μM to 1.87 nM) and compound transfer was performed using the ECHO 550 (Labcyte, Sunnyvale, Calif.) into 384-well clear bottom assay plates (Greiner Bio-One) with appropriate DMSO backfill for a final DMSO concentration of 0.1%. LL29 cells are plated at 1,500 cells/well in 80 μL/well F12 medium supplemented with 1% Fetal Bovine Serum. One hour after addition of the cells, TGF-β1 (Peprotech; 20 ng/mL) was added to the plates to induce fibrosis (ref. 1 and 2 above). Wells treated with TGF-β1 and containing DMSO were used as controls. Cells were incubated at 37° C. and 5% CO2 for 4 days. Following incubation for 4 days, SYTOX green nucleic acid stain (Life Technologies [Thermo Fisher Scientific]) was added to the wells at a final concentration of 1 μM and incubated at room temperature for 30 min. Cells were then fixed using 4% formaldehyde (Electron Microscopy Sciences), washed 3 times with PBS followed by blocking and permeabilization using 3% Bovine Serum Albumin (BSA; Sigma) and 0.3% Triton X-100 (Sigma) in PBS. Cells were then stained with antibody specific to α-smooth muscle actin (αSMA; Abcam) (ref. 1 and 2 above) in 3% Bovine Serum Albumin (BSA; Sigma) and 0.3% Triton X-100 (Sigma) in PBS, and incubated overnight at 4° C. Cells were then washed 3 times with PBS, followed by incubation with Alexa Flor-647 conjugated secondary antibody (Life Technologies [Thermo Fisher Scientific]) and DAPI at room temperature for 1 hour. Cells were then washed 3 times with PBS and plates were sealed for imaging. αSMA staining was imaged by excitation at 630 nm and emission at 665 nm and quantified using the Compartmental Analysis program on the CellInsight CX5 (Thermo Scientific). Dead or apoptotic cells were excluded from analysis based on positive SYTOX green staining. % of total cells positive for αSMA were counted in each well and normalized to the average of 11 wells treated with TGF-β1 on the same plate using Dotmatics' Studies Software. The normalized averages (fold change over untreated) of 3 replicate wells for each compound concentration were used to create dose-responses curves and EC50 values were calculated using non-linear regression curve fit in the Dotmatics' Studies Software. For EC50 of >10 μM, the percent inhibition at 10 μM is provided.

For assay [3], the system named is IL-6 in human monocyte cell line (THP-1 cells). The assay is described as follows: IL-6 inhibition in LPS-stimulated THP-1 cells (HTRF). To be noted: IL-6 in LPS-stimulated THP-1 cells, HTRF. The procedure:
Human monocyte cell line (THP-1 cells; Catalog # TIB-202, ATCC, Manassas, Va.) were cultured in Roswell Park Memorial Institute (RPMI) 1640 Medium (Catalog #21870-100, Buffalo, N.Y.) with 1% L-glutamine, 1% HEPES, 1% Sodium Pyruvate, 2% Sodium Bicarbonate supplemented with 100 units/mL penicillin, 50 μg/mL streptomycin, 2-mercaptoethanol (0.05 mM) [basal medium] and 10% fetal bovine serum (Catalog #16140089, Life Technologies, Carlsbad, Calif.) at 37° C. and 5% CO2.
THP-1 cells were cultured in basal media with 1% FBS for 24 hours before the start of the assay. Each compound was dissolved in DMSO as a 10 mM stock and used to prepare compound source plates. Serial dilution (1:3, 10-point dose-response curves starting from 10 μM) and compound transfer was performed using the ECHO 550 (Labcyte, Sunnyvale, Calif.) into 384-well white low volume assay plates (Greiner Bio-One) with appropriate DMSO backfill for a final DMSO concentration of 0.1%. THP-1 cells were plated at 5000 cells/well in the 384-well plates and incubated at 37° C. for 2 h. 500 ng/mL of LPS was added after 2 hours and cells were incubated for another 22 hours at 37° C. Plates were spun in a centrifuge for 1 minute at […] and a mixture of anti-IL6 XL665, and anti-IL6 Cryptate diluted in reconstitution buffer (Cisbio Inc.) was added to each well. Following incubation for 3 hrs at room temperature, Homogeneous Time-Resolved Fluorescence (HTRF) was measured using the Envision (Perkin Elmer) at 665 nm and […]. The ratio of fluorescence at 665 nm to 620 nm was used as a readout for IL6 quantification. All samples were processed in duplicate. Readings were normalized to DMSO treated cells and normalized activities were utilized for EC50 calculations using the dose-response log (inhibitor) vs. response-variable slope (four parameters) nonlinear regression feature available in GraphPad Prism 5.0 (or Dotmatics). For EC50 of >10 μM, the percent inhibition at 10 μM is provided.

In the case of `c1ccc(CNCc2cncc(-c3ccc4[nH]nc(-c5nc6c(-c7cccnc7)nccc6[nH]5)c4n3)c2)cc1` [Compound 108, N-Benzyl-1-(5-(3-(4-(pyridin-3-yl)-1H-imidazo[4,5-c]pyridin-2-yl)-1H-pyrazolo [4,3-b]pyridin-5-yl)pyridin-3-yl)methanamine], the concentration for a half-maximal effect (EC50) in assay [1] is 6.78 µM; with SW480 colon cancer cells, 2.58 µM; in assay [2], 9.06 µM; in assay [3], 0.123 µM.
On the same counts, the results for `FC1(F)CCN(Cc2cncc(-c3ccc4[nH]nc(-c5nc6c(N7CCCCC7)nccc6[nH]5)c4n3)c2)C1` [Compound 194, 5-(5-((3,3-Difluoropyrrolidin-1-yl)methyl)pyridin-3-yl)-3-(4-(piperidin-1-yl)-1H-imidazo[4,5-c]pyridin-2-yl)-1H-pyrazolo[4,3-b]pyridine] are 3.39 µM, 1.96 µM, 2.24 µM and 2.49 µM.
As to `c1ccc(-c2ccc3[nH]nc(-c4nc5cnccc5[nH]4)c3n2)nc1` [Compound 280, 3-(1H-Imidazo[4,5-c]pyridin-2-yl)-5-(pyridin-2-yl)-1H-pyrazolo[4,3-b]pyridine], the EC50 turned out to be 1.32 µM in assay [1], 5.71 µM in the assay on SW480 colon cancer cells, 7.23 µM in assay [2] and 1.9 µM in assay [3].
As to `c1csc(-c2nccc3[nH]c(-c4n[nH]c5ccc(-c6ccncc6)nc45)nc23)c1` [Compound 354, 5-(Pyridin-4-yl)-3-(4-(thiophen-2-yl)-1H-imidazo[4,5-c]pyridin-2-yl)-1H-pyrazolo[4,3-b]pyridine], the EC50 was determined as 1.07 µM in assay [1], 1.05 µM in the assay on SW480 colon cancer cells, 0.792 µM in assay [2] and 9.11 µM in assay [3].
Take `CN(C)CCNc1cc(F)cc(-c2nccc3[nH]c(-c4n[nH]c5ccc(-c6cncc(CNCC7CCCC7)c6)nc45)nc23)c1` [Compound 473, N^1-(3-(2-(5-(5-(((Cyclopentylmethyl)amino)methyl)pyridin-3-yl)-1H-pyrazolo[4,3-b]pyridin-3-yl)-1H-imidazo[4,5-c]pyridin-4-yl)-5-fluorophenyl)-N^2,N^2-dimethylethane-1,2-diamine]: the EC50 in assay [1] came to 4.41 µM; in the assay on SW480 colon cancer cells, 8.37 µM; in assay [2], 5.06 µM; in assay [3] it was 4.66 µM.
In the case of `Cc1ncc(-c2ccc3[nH]nc(-c4nc5c(-c6cccc(F)c6)nccc5[nH]4)c3n2)n1C` [Compound 509, 5-(1,2-Dimethyl-1H-imidazol-5-yl)-3-(4-(3-fluorophenyl)-1H-imidazo[4,5-c]pyridin-2-yl)-1H-pyrazolo[4,3-b]pyridine], the EC50 in assay [1] was found to be 0.036 µM; in the assay with SW480 colon cancer cells it was 0.688 µM; in assay [2], 0.202 µM; in assay [3], 0.437 µM.
Turning to `COc1cncc(-c2ccc3[nH]nc(-c4nc5c(N6CCCCC6)nccc5[nH]4)c3n2)c1` [Compound 612, 5-(5-Methoxypyridin-3-yl)-3-(4-(piperidin-1-yl)-1H-imidazo[4,5-c]pyridin-2-yl)-1H-pyrazolo[4,3-b]pyridine], the EC50 stood at 3.23 µM in assay [1], 3.99 µM in the assay on SW480 colon cancer cells, 2.92 µM in assay [2] and 3.81 µM in assay [3].
On the same counts, the results for `Oc1cncc(-c2ccc3[nH]nc(-c4nc5c(N6CCCCC6)nccc5[nH]4)c3n2)c1` [Compound 613, 5-(3-(4-(Piperidin-1-yl)-1H-imidazo[4,5-c]pyridin-2-yl)-1H-pyrazolo[4,3-b]pyridin-5-yl)pyridin-3-ol] are 2.2 µM, 9.37 µM, 9.46 µM and 3.98 µM.
For the compound `CN1CCN(c2nccc3[nH]c(-c4n[nH]c5ccc(-c6cncc(OC7CCCCC7)c6)nc45)nc23)CC1` [Compound 639, 5-(5-(Cyclohexyloxy)pyridin-3-yl)-3-(4-(4-methylpiperazin-1-yl)-1H-imidazo[4,5-c]pyridin-2-yl)-1H-pyrazolo[4,3-b]pyridine], the EC50 in assay [1] came out at 2.67 µM; with SW480 colon cancer cells, 2.42 µM; in assay [2], 2.61 µM; in assay [3] it was 3.42 µM.

The record behind these values is patent US10195185B2, “3-(1H-imidazo[4,5-C]pyridin-2-yl)-1H-pyrazolo[4,3-B]pyridines and therapeutic uses thereof” (Samumed, LLC, priority 2015, dated 2019).
